Source: PubChem BioAssay (NCI)
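At the GI50, growth is halved. TGI is the concentration that stops growth completely.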

Legend:
Test in all cases: inhibition of tumour cell growth, NCI panel, 384-well format
COLO 205 colon = system: COLO 205 colon
LOX IMVI melanoma = system: LOX IMVI melanoma
HT29 colon = system: HT29 colon
K-562 leukemia = system: K-562 leukemia
NCI-H460 NSCLC = system: NCI-H460 NSCLC
SW-620 colon = system: SW-620 colon
UO-31 renal = system: UO-31 renal
786-0 renal = system: 786-0 renal
SR leukemia = system: SR leukemia
T-47D breast = system: T-47D breast
DU-145 prostate = system: DU-145 prostate
CCRF-CEM leukemia = system: CCRF-CEM leukemia
SK-MEL-5 melanoma = system: SK-MEL-5 melanoma
MALME-3M melanoma = system: MALME-3M melanoma
HCT-15 colon = system: HCT-15 colon
ACHN renal = system: ACHN renal
UACC-257 melanoma = system: UACC-257 melanoma
CAKI-1 renal = system: CAKI-1 renal
MDA-MB-468 breast = system: MDA-MB-468 breast
A549 NSCLC = system: A549 NSCLC
PC-3 prostate = system: PC-3 prostate
KM12 colon = system: KM12 colon
OVCAR-5 ovarian = system: OVCAR-5 ovarian
UACC-62 melanoma = system: UACC-62 melanoma
BT-549 breast = system: BT-549 breast
IGROV1 ovarian = system: IGROV1 ovarian
NCI-H226 lung = system: NCI-H226 lung
U251 glioblastoma = system: U251 glioblastoma
HS 578T breast = system: HS 578T breast
SK-OV-3 ovarian = system: SK-OV-3 ovarian
RPMI-8226 leukemia = system: RPMI-8226 leukemia
MDA-MB-435 melanoma = system: MDA-MB-435 melanoma
OVCAR-8 ovarian = system: OVCAR-8 ovarian
A498 renal = system: A498 renal
SNB-19 CNS = system: SNB-19 CNS
SNB-75 CNS = system: SNB-75 CNS
TK-10 renal = system: TK-10 renal
SK-MEL-28 melanoma = system: SK-MEL-28 melanoma
NCI-H23 lung = system: NCI-H23 lung
HCC-2998 colon = system: HCC-2998 colon
SF-295 CNS = system: SF-295 CNS
SN12C renal = system: SN12C renal
MCF7 breast = system: MCF7 breast
RXF 393 renal = system: RXF 393 renal
NCI-H522 lung = system: NCI-H522 lung
NCI/ADR-RES ovarian = system: NCI/ADR-RES ovarian
HL-60(TB) leukemia = system: HL-60(TB) leukemia
NCI-H322M lung = system: NCI-H322M lung
HOP-62 NSCLC = system: HOP-62 NSCLC
M14 melanoma = system: M14 melanoma
SF-539 CNS = system: SF-539 CNS
EKVX NSCLC = system: EKVX NSCLC
MOLT-4 leukemia = system: MOLT-4 leukemia
MDA-MB-231 breast = system: MDA-MB-231 breast
SF-268 CNS = system: SF-268 CNS
OVCAR-4 ovarian = system: OVCAR-4 ovarian
OVCAR-3 ovarian = system: OVCAR-3 ovarian
HOP-92 NSCLC = system: HOP-92 NSCLC

**Q.** Which results are given for `O=C(Nc1ccc(OC(F)(F)F)cc1)c1sccc1NCc1ccnc2ccccc12`?
**A.** GI50 (COLO 205 colon): 4.4 µM; TGI (COLO 205 colon): 22.8 µM; GI50 (LOX IMVI melanoma): 3.48 µM; TGI (LOX IMVI melanoma): 10.6 µM; GI50 (HT29 colon): 4.31 µM; TGI (HT29 colon): 17.1 µM; GI50 (K-562 leukemia): 1.75 µM; TGI (K-562 leukemia): 3.66 µM; GI50 (NCI-H460 NSCLC): 2.93 µM; TGI (NCI-H460 NSCLC): 10.6 µM; GI50 (SW-620 colon): 6.31 µM; TGI (SW-620 colon): 23 µM; GI50 (UO-31 renal): 8.23 µM; TGI (UO-31 renal): > 100 µM; GI50 ([…]-0 renal): 4.38 µM; TGI (786-0 renal): 15.6 µM; GI50 (SR leukemia): 1.81 µM; TGI (SR leukemia): 4.06 µM; GI50 (T-47D breast): 2.03 µM; TGI (T-47D breast): 6.57 µM; GI50 (DU-145 prostate): 4.94 µM; TGI (DU-145 prostate): > 100 µM; GI50 (CCRF-CEM leukemia): 2.03 µM; TGI (CCRF-CEM leukemia): 4.44 µM; GI50 (SK-MEL-5 melanoma): 1.66 µM; TGI (SK-MEL-5 melanoma): 3.41 µM; GI50 (MALME-3M melanoma): 1.73 µM; TGI (MALME-3M melanoma): 8.96 µM; GI50 (HCT-15 colon): 3.55 µM; TGI (HCT-15 colon): 10.9 µM; GI50 (ACHN renal): 3.39 µM; TGI (ACHN renal): 20.7 µM; GI50 (UACC-257 melanoma): 3.51 µM; TGI (UACC-257 melanoma): 13.6 µM; GI50 (CAKI-1 renal): 3.2 µM; TGI (CAKI-1 renal): 14.8 µM; GI50 (MDA-MB-468 breast): 2.06 µM; TGI (MDA-MB-468 breast): 5.16 µM; GI50 (A549 NSCLC): 4.5 µM; TGI (A549 NSCLC): 52.5 µM; GI50 (PC-3 prostate): 4.56 µM; TGI (PC-3 prostate): 25.7 µM; GI50 (KM12 colon): 3.74 µM; TGI (KM12 colon): 15.9 µM; GI50 (OVCAR-5 ovarian): 8.44 µM; TGI (OVCAR-5 ovarian): 43.8 µM; GI50 (UACC-62 melanoma): 2.76 µM; TGI (UACC-62 melanoma): 14.3 µM; GI50 (BT-549 breast): 5.78 µM; TGI (BT-549 breast): 17.7 µM; GI50 (IGROV1 ovarian): 2.47 µM; TGI (IGROV1 ovarian): 6.72 µM; GI50 (NCI-H226 lung): 4.4 µM; TGI (NCI-H226 lung): 19 µM; GI50 (U251 glioblastoma): 11.8 µM; TGI (U251 glioblastoma): > 100 µM; GI50 (HS 578T breast): 2.66 µM; TGI (HS 578T breast): 8.81 µM; GI50 (SK-OV-3 ovarian): 2.97 µM; TGI (SK-OV-3 ovarian): 9.49 µM; GI50 (RPMI-8226 leukemia): 2.06 µM; TGI (RPMI-8226 leukemia): 4.59 µM; GI50 (MDA-MB-435 melanoma): 4.65 µM; TGI (MDA-MB-435 melanoma): 21.7 µM; GI50 (OVCAR-8 ovarian): 3.99 µM; TGI (OVCAR-8 ovarian): 16.2 µM; GI50 (A498 renal): 2.57 µM; TGI (A498 renal): 12.8 µM; GI50 (SNB-19 CNS): 11.9 µM; TGI (SNB-19 CNS): > 100 µM; GI50 (SNB-75 CNS): 5.09 µM; TGI (SNB-75 CNS): 51.6 µM; GI50 (TK-10 renal): 11 µM; TGI (TK-10 renal): 65 µM; GI50 (SK-MEL-28 melanoma): 5.71 µM; TGI (SK-MEL-28 melanoma): 35.2 µM; GI50 (NCI-H23 lung): 2.39 µM; TGI (NCI-H23 lung): 8.57 µM; GI50 (HCC-2998 colon): 4.65 µM; TGI (HCC-2998 colon): 12 µM; GI50 (SF-295 CNS): 3.9 µM; TGI (SF-295 CNS): 19 µM; GI50 (SN12C renal): 3.82 µM; TGI (SN12C renal): 24.8 µM; GI50 (MCF7 breast): 3.24 µM; TGI (MCF7 breast): 15.9 µM; GI50 (RXF 393 renal): 2.97 µM; TGI (RXF 393 renal): 14.3 µM; GI50 (NCI-H522 lung): 2.96 µM; TGI (NCI-H522 lung): 11.6 µM; GI50 (NCI/ADR-RES ovarian): 2.8 µM; TGI (NCI/ADR-RES ovarian): 8.9 µM; GI50 (HL-60(TB) leukemia): 1.69 µM; TGI (HL-60(TB) leukemia): 3.17 µM; GI50 (NCI-H322M lung): 4.43 µM; TGI (NCI-H322M lung): 40.4 µM; GI50 (HOP-62 NSCLC): 8.26 µM; TGI (HOP-62 NSCLC): 71.6 µM; GI50 (M14 melanoma): 3.56 µM; TGI (M14 melanoma): 14.3 µM; GI50 (SF-539 CNS): 5.11 µM; TGI (SF-539 CNS): 19.8 µM; GI50 (EKVX NSCLC): 3.43 µM; TGI (EKVX NSCLC): 19.9 µM; GI50 (MOLT-4 leukemia): 1.93 µM; TGI (MOLT-4 leukemia): 3.56 µM; GI50 (MDA-MB-231 breast): 1.9 µM; TGI (MDA-MB-231 breast): 15.2 µM; GI50 (SF-268 CNS): 6.24 µM; TGI (SF-268 CNS): 32 µM; GI50 (OVCAR-4 ovarian): 4.43 µM; TGI (OVCAR-4 ovarian): 19.6 µM; GI50 (OVCAR-3 ovarian): 5.25 µM; TGI (OVCAR-3 ovarian): 19.6 µM; GI50 (HOP-92 NSCLC): 3.99 µM; TGI (HOP-92 NSCLC): 15.7 µM
